Experimental data reported in patent US20180186769A1, “6-AMINO-5-FLUORO-5-(FLUOROMETHYL)-2,3,4,5-TETRAHYDROPYRIDIN-2-YL-PHENYL-5-(METHOXY-D3)-PYRAZINE-2-CARBOXAMIDES AND FLUORINATED DERIVATIVES THEREOF AS BACE1 INHIBITORS” (H. Lundbeck A/S, priority 2016, published 2018).

What was measured:
[1] = Clearance in hepatocytes, dog; format: in vitro ADME; details: read-out: CLint, Dog (L/h/kg) ± SD (converted)
Excerpt: (§1) Deuterated compounds were compared to their non-deuterated parent counterparts to determine the impact of deuteration on clearance results

[2] = Clearance in microsomes, rat; format: in vitro ADME; details: read-out: CLint, Rat (L/h/kg) ± SD (converted)
Excerpt: as §1

[3] = Clearance in hepatocytes, cyno; format: in vitro ADME; details: cynomolgus monkey, read-out: CLint, Cyno (L/h/kg) ± SD (converted)
Excerpt: as §1

[4] = Clearance in microsomes, cyno; format: in vitro ADME; details: cynomolgus monkey, read-out: CLint, Cyno (L/h/kg) ± SD (converted)
Excerpt: as §1

[5] = Clearance in hepatocytes, human; format: in vitro ADME; details: read-out: CLint, Human (L/h/kg) ± SD (converted)
Excerpt: as §1

[6] = Clearance in hepatocytes, rat; format: in vitro ADME; details: read-out: CLint, Rat (L/h/kg) ± SD (converted)
Excerpt: as §1

[7] = Clearance in microsomes, dog; format: in vitro ADME; details: read-out: CLint, Dog (L/h/kg) ± SD (converted)
Excerpt: as §1

[8] = Clearance in microsomes, human; format: in vitro ADME; details: read-out: CLint, Human (L/h/kg) ± SD (converted)
Excerpt: as §1

BACE1 [9] = biological target: T1, BACE1 (Homo sapiens, UniProt P56817); assay: BACE1 efficacy assay (FRET-based); format: biochemical; set-up: purchased Life Technologies P2985; details: 10 μM test compound
Description: The efficacy assay was performed as a FRET-based assay using a commercially available BACE1 kit (Life Technologies, P2985). 2 μl test compound at 10 μM (final concentration) and 15 μl BACE1 enzyme from the kit (final concentration 3 nM) were preincubated for 15 minutes at room temperature before addition of 15 μl of substrate from the kit (250 nM final concentration) and incubated for additional 90 minutes at room temperature. The assay plate was subsequently read in a Pherastar (Ex540/Em590). The enzyme activity observed in presence of test compound were normalized to the enzyme activity observed in presence of buffer and 10 μM (final concentration) of the high affinity BACE1 reference inhibitor (S)-6-[3-Chloro-5-(5-prop-1-ynyl-pyridin-3-yl)-thiophen-2-yl]-2-imino-3,6-dimethyl-tetrahydropyrimidin-4-one, respectively. The efficacy of the test compounds was evaluated at 10 μM (final concentration) and defined as the percent inhibition of the enzyme activity using the equation % inhibition=100%−normalized enzyme activity in percent.

BACE1 [10] = biological target: T1, BACE1; assay: BACE1 binding assay (SPA-based); set-up: biotin (biotinylated form); made in house; host or cells: Freestyle HEK293 cells; details: pH 4.5, 10 nM radioligand
Description: The binding assay was performed as SPA-based assay using a biotinylated form of human BACE1 recombinantly expressed and subsequently purified from Freestyle HEK293 cells. The binding assay was run in a 50 mM sodium acetate buffer, pH 4.5 containing 50 mM NaCl and 0.03% Tween-20 in white clear bottom 384 plates (Corning #3653). […] The plates were incubated for one hour at room temperature and counted in a Wallac Trilux counter. Total and non-specific binding were determined using buffer and 1 μM (final concentration) of the high affinity BACE1 reference inhibitor (S)-6-[3-chloro-5-(5-prop-1-ynyl-pyridin-3-yl)-thiophen-2-yl]-2-imino-3,6-dimethyl-tetrahydro-pyrimidin-4-one, respectively. For each test compound, a IC50 value (the concentration mediating 50% inhibition of the specific binding of the radioligand) was determined from concentration-response curve and used to calculate the Ki from the equation Ki=IC50/(1+L/Kd), where L and Kd are the final concentration of the radioligand used in the assay and the dissociation constant of the radioligand, respectively. The Kd of the radioligand was determined from saturation binding experiments.

P-gp (MDR1) = assay: MDCK-MDR1 assay (permeability, efflux ratio); format: in vitro ADME; details: dog, Papp BA/Papp AB
Description: The permeability of the test compounds was assessed in MDCK-MDR1 cells that were cultured to confluency (4-6 days) in a 96 transwell plate. Test compounds were diluted with the transport buffer (HBSS+1% BSA) to a concentration of 0.5 μM and applied to the apical or basolateral side of the cell monolayer. Permeation of the test compounds from A to B direction or B to A direction was determined in triplicate over a 60-minute incubation time at 37° C. and 5% CO2 with a relative humidity of 95%. Test compounds were quantified by LC-MS/MS analysis based on the peaks area ratios of analyte/IS in both the receiver and donor wells of the transwell plate.
The apparent permeability coefficient Papp (cm/s) was calculated using the equation: […]
Where dCr/dt is the cumulative concentration of compound in the receiver chamber as a function of time (μM/s); Vr is the solution volume in the receiver chamber (0.05 mL on the apical side; 0.25 mL on the basolateral side); A is the surface area for the transport, i.e. 0.0804 cm^2 for the area of the monolayer; CO is the initial concentration in the donor chamber (μM).
Compounds are classified Pgp substrates when efflux ratio (Papp BA/Papp AB) is ≥2.

T1 sequence (P56817 46-501): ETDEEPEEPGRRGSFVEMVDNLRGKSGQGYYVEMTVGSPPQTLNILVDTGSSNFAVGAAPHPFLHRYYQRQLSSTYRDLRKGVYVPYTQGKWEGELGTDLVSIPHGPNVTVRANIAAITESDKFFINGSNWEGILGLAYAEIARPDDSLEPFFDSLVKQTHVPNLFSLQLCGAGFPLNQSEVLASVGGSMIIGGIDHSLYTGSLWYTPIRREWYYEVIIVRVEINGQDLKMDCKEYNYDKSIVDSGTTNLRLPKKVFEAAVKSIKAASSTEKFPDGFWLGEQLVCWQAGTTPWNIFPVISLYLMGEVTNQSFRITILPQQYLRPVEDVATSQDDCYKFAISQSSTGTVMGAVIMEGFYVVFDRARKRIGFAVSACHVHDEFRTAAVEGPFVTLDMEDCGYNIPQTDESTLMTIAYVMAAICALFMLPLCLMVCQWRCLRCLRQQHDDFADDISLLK

| SMILES | CLint scaled at 0.1 µM [1] [L/h/kg] | CLint scaled at 0.3 µM [1] [L/h/kg] | CLint scaled at 1 µM [1] [L/h/kg] | CLint scaled at 1 µM [2] [L/h/kg] | CLint scaled at 0.1 µM [3] [L/h/kg] | CLint scaled at 0.3 µM [3] [L/h/kg] | CLint scaled at 1 µM [3] [L/h/kg] | CLint scaled at 1 µM [4] [L/h/kg] | CLint scaled at 0.1 µM [5] [L/h/kg] | CLint scaled at 0.3 µM [5] [L/h/kg] | CLint scaled at 1 µM [5] [L/h/kg] | CLint scaled at 0.1 µM [6] [L/h/kg] | CLint scaled at 0.3 µM [6] [L/h/kg] | CLint scaled at 1 µM [6] [L/h/kg] | CLint scaled at 1 µM [7] [L/h/kg] | CLint scaled at 1 µM [8] [L/h/kg] | inhibition at 10 µM (BACE1 [9]) [%] | Ki (BACE1 [10]) [nM] | efflux ratio at 60 min, 0.5 μM (P-gp (MDR1)) | also measured |
| --- | --- | --- | --- | --- | --- | --- | --- | --- | --- | --- | --- | --- | --- | --- | --- | --- | --- | --- | --- | --- |
| [2H]C([2H])([2H])Oc1ccc(C(=O)Nc2ccc(F)c([C@@]3(C(F)F)N=C(N)CCC3(F)F)c2)nc1 [Compound Y] | 98 | 84 | 57 | 1 | 80 | 32 | 14 | 12 | < 0.1 | < 0.1 | 0.29 | 1.4 | 1 | 2.1 | 21 | 0.5 | – | – | – | – |
| [2H]C([2H])([2H])Oc1cnc(C(=O)Nc2ccc(F)c([C@]3(CF)CC[C@](F)(CF)C(N)=N3)c2)cn1 [Example 3, N-[3-[(2S,5R)-6-amino-5-fluoro-2,5-bis(fluoromethyl)-2,3,4,5-tetrahydropyridin-2-yl]-4-fluoro-phenyl]-5-(methoxy-d3)pyrazine-2-carboxamide] | – | – | – | – | – | – | – | – | – | – | – | – | – | – | – | – | 97 | 67 | 0.85 | – |
| COc1cnc(C(=O)Nc2ccc(F)c([C@]3(C)CC[C@@](F)(CF)C(N)=N3)c2)cn1 [Compound Z] | 112 | 101 | 64 | 1.3 | 137 | 135 | 75 | 34 | 1 | 0.95 | 0.72 | 1.7 | 1.5 | 1 | 25 | 0.51 | – | – | – | CLint scaled at 0.1 µM ([2]; 0.1 microM): 2.7 L/h/kg; CLint scaled at 0.3 µM ([2]; 0.3 microM): 1.8 L/h/kg; CLint scaled at 0.1 µM ([4]; 0.1 microM): 70 L/h/kg; CLint scaled at 0.3 µM ([4]; 0.3 microM): 61 L/h/kg; CLint scaled at 0.1 µM ([7]; 0.1 microM): 40 L/h/kg; CLint scaled at 0.3 µM ([7]; 0.3 microM): 31 L/h/kg; CLint scaled at 0.1 µM ([8]; 0.1 microM): 1 L/h/kg; CLint scaled at 0.3 µM ([8]; 0.3 microM): 0.75 L/h/kg |
| [2H]C([2H])([2H])Oc1cnc(C(=O)Nc2cc(F)c(F)c([C@]3(C)CC[C@](F)(CF)C(N)=N3)c2)cn1 [Example 2, N-[3-[(2S,5R)-6-amino-5-fluoro-5-(fluoromethyl)-2-methyl-2,3,4,5-tetrahydropyridin-2-yl]-4,5-difluoro-phenyl]-5-(methoxy-d3)pyrazine-2-carboxamide] | – | – | – | – | – | – | – | – | – | – | – | – | – | – | – | – | 99 | 84 | 0.96 | – |

Continued, in another order:

| CLint scaled at 0.1 µM [1] [L/h/kg] | CLint scaled at 0.3 µM [1] [L/h/kg] | CLint scaled at 1 µM [1] [L/h/kg] | CLint scaled at 1 µM [2] [L/h/kg] | CLint scaled at 0.1 µM [3] [L/h/kg] | CLint scaled at 0.3 µM [3] [L/h/kg] | CLint scaled at 1 µM [3] [L/h/kg] | CLint scaled at 1 µM [4] [L/h/kg] | CLint scaled at 0.1 µM [5] [L/h/kg] | CLint scaled at 0.3 µM [5] [L/h/kg] | CLint scaled at 1 µM [5] [L/h/kg] | CLint scaled at 0.1 µM [6] [L/h/kg] | CLint scaled at 0.3 µM [6] [L/h/kg] | CLint scaled at 1 µM [6] [L/h/kg] | CLint scaled at 1 µM [7] [L/h/kg] | CLint scaled at 1 µM [8] [L/h/kg] | inhibition at 10 µM (BACE1 [9]) [%] | Ki (BACE1 [10]) [nM] | efflux ratio at 60 min, 0.5 μM (P-gp (MDR1)) | SMILES | also measured |
| --- | --- | --- | --- | --- | --- | --- | --- | --- | --- | --- | --- | --- | --- | --- | --- | --- | --- | --- | --- | --- |
| – | – | – | – | – | – | – | – | – | – | – | – | – | – | – | – | 97 | 14 | 0.73 | [2H]C([2H])([2H])Oc1cnc(C(=O)Nc2ccc(F)c([C@]3(CF)CC[C@@](F)(CF)C(N)=N3)c2)cn1 [Example 4, N-[3-[(2S,5S)-6-amino-5-fluoro-2,5-bis(fluoromethyl)-2,3,4,5-tetrahydropyridin-2-yl]-4-fluoro-phenyl]-5-(methoxy-d3)pyrazine-2-carboxamide] | – |
| – | – | – | – | – | – | – | – | – | – | – | – | – | – | – | – | 100 | 9.8 | 0.77 | [2H]C([2H])([2H])Oc1cnc(C(=O)Nc2cc(F)c(F)c([C@]3(C)CC[C@@](F)(CF)C(N)=N3)c2)cn1 [Example 5, N-[3-[(2S,5S)-6-amino-5-fluoro-5-(fluoromethyl)-2-methyl-2,3,4,5-tetrahydropyridin-2-yl]-4,5-difluoro-phenyl]-5-(methoxy-d3)pyrazine-2-carboxamide] | – |
